What was measured:
[1] = tested on: carrageenan and kaolin induced monoarthritis; assay: Carrageenan and kaolin induced monoarthritis model (incapacitance test); format: in vivo, rats; conditions: 10 mg/kg p.o.
Protocol: The Incapacitance tester is an apparatus for measure the changes of the functional parameters induced of the pain, which can register the bearing on the hind limb, the amount of the moving and the changing of the centre of gravity. Knee-joint of the right-back limb was treated with solution of 100 μl 2% carrageenan and kaolin. During 3-4 hours after the treatment arthritis was emerged in the capsular ligament of the treated limb. This inflammation still exists at 24 hours after the treatment. Because of the pain the animals coddles the treated limbs, thy weign on it less. Change of weight load is measurable with Incapacitance tester device in grams. The incapacitance was calculated as follows: [formula] Analgesic-antiinflammantory compounds could increase the stimulus threshold of the knee-joint, and consequently to improve the functional parameters of the limb. Measure of this can be counted by the decrease of the loading of left leg i.e. in terms of percentage of reversal. [formula] The Incapacitance induced by administration of irritants in left paw was measured at 4 hour after the injection. Afterwards the animals (n=24-32/group) were. orally treated with dose of 10 mg/kg valdecoxib and test compounds. Measurements were done at 1 and 2 hours after the treatments.

[2] = tested on: isolated rabbit heart; assay: Cardiac effects on the isolated rabbit heart (Langendorff, coronary flow); parameters: species or system New Zealand white rabbits; conditions: 1, 3 and 10 μM, 4-4 hearts
Protocol: New Zealand white rabbits weighing 1.5-2 kg were used. The animals were exsanguinated and after thoracotomy the hearts were excised and mounted on a Langendorff-type perfusion apparatus. The hearts were perfused via the aorta with oxigenated, thermostated (37° C.) Krebs solution. A constant perfusion pressure of 80 cmH2O was applied. The test compounds were dissolved in the perfusion solution to obtain the requested concentrations.
The basic value of coronary flow was determined. Afterwards the small amount of compounds were added to perfusion liquid and the perfusion was measured for 30 minutes at every 10 minutes. Afterwards 30 minutes perfusion was performed without compound and the measure was repeated with the medium and high amount of compounds.
The effects of same concentration of valdecoxib and compound of example 1 were investigated in 4-4 hearts (1, 3 and 10 μM). Valdecoxib had no effect in either concentration. It can clearly be shown that the coronary flow was increased dose dependently. This effect is advantageous in practice of clinical therapy, because the painful arthritic and degenerative joint and bone deformations are emerged rather in old age, when diseases of the vascular system are also frequently encountered, which can conduce to disorder of vascular bed of the heart.

[3] = tested on: carrageenan-induced foot paw edema; assay: Carrageenan-induced rat foot paw edema assay; format: in vivo, male Wistar rats; conditions: for ED30 of edema inhibition: p.o.
Protocol: The edema was induced in male Wistar rats (140-150 g) by subcutaneous injection of carrageenan (50 μl of 1% suspension) into the right hind paw. The formed inflammation was measured with plethysmometer (Ugo Basile, type: 7150). The treated paw was placed into the plethysmometer (filled with 0.3% additives in 0.5% saline), the level of the inflammation was detected by the volume of the displaced solution. This volume was compared with the initial preinjection paw volume. Level of the inflammation (ml)=volume after CA treatment (ml)−volume before CA treatment (ml) The inflammation induced in treated group was compared to control group (which was given only vehicle). The sample materials and the solvent were dosed per os via gastro-sonde 1 hour before the CA treatment. The volume of the treated limb was measured at 3h and 5h after CA treatments. The change of the inflammation level was calculated as follows: [formula]

[4] = tested on: carrageenan induced inflammatory hyperalgesia; assay: Carrageenan induced inflammatory hyperalgesia (Randall-Selitto), chronic model; format: in vivo, male SPRD rats; conditions: 30 mg/kg p.o.
Protocol: (§1) Edema was induced by injection of Carrageenan (CA) into plantar surface of right hind paw. Male SPRD rats (weighing 140-190 g) were used n=6-8/group). Then the mechanical pain threshold of the inflamed hind paw was determined with an analgesimeter ((Ugo Basile, type: 37215).
(§2) This assay monitors the decrease of the pain threshold, and the time depending changing of the pain by mechanical pain stimulus. Analgesics can increase the pain threshold of the inflamed hinds and this effect is in terms of percentage of reversal.
(§3) Untreated right hind paw was compressed with a progressively increasing pressure. The pressure was recorded (in grams) when the animal first vocalized or made a vigorous attempt to remove the paw. It was determined to baseline threshold of the untreated paw. (average: 80-110 g). After it the animals were treated with carrageenan. After the treatment the edema and the threshold were checked in a given times. […] (Average of inflammation induced pain threshold was 20-25 g, this means 65-80% decrease related to the baseline.)
(§4) The chronic phase of the inflammantion and the decreasing of the threshold were induced by higher dose of CA. Inflammation induced threshold decreasing was measured 24 hours after the CA injection (150 μl of 2% solution). ) After it the animals were treated with test compounds and valdecoxib (30-30 mg/kg p.o.). Change in the threshold was checked at 1 h, 2 h, and 3 h following drug administration. In both model used control groups were treated orally only with solvents at the time of treatments. In both protocol the effects of the test compounds were calculated in percentage reversal of mechanical hiperalgesia: [formula] • T3h: In acute model, the threshold in the control group at 3 h after the CA injection (in gram) • T24h: In chronic model, the threshold in the control group at 24 h after the CA injection (in gram) • T0h: The threshold before the CA injection (in gram) • TXh In acute model, at 3h after the CA injection • TXh=In chronic model, at 25 h, 26 h, 27 h after the CA injection

[5] = tested on: inflammatory mechanical allodynia induced by carrageenan; assay: Carrageenan-induced inflammatory mechanical allodynia (von Frey); format: in vivo, male Sprague-Dawley rats; conditions: 30 mg/kg p.o.
Protocol: The-threshold of pain of the animals was measured by von Frey apparatus (IITC, type: 1601 C). […] The values were registered in the times of the pick up or raises. During each measurment the threshold was determined at least thrice and the avarage was calculated from the peak values.
Male Sprague-Dawley rats (weighing 250-300 g) were used (n=5-6/group). 100 μl of saline solution of carrageenant (CA) was injected to the middle of the paw. The stimulus threshold was measured after it, and the treatment was completed with gastro-probe per os. The effects of the materials were measured in 30, 60, 90, 120 minutes after the treatments. The effects were compared for control group treatment with vehicle (solution of 2% Tween-80).
The effect was calculated as follows: [formula] where tx=30, 60, 90, 120 min
In the acute pain model the analgesic effects of the valdecoxib and compound of example 1 were considerable with dose of 30 mg/kg p.o. once.

[6] = tested on: carrageenan induced inflammatory hyperalgesia; assay: Carrageenan induced inflammatory hyperalgesia (Randall-Selitto), acute model; format: in vivo, male SPRD rats; conditions: Acut model, 10 mg/kg p.o.
Protocol: as §1, §2, §3
1 hour after the CA injection (100 μl of 2% solution) the animals were treated with test compounds and valdecoxib (10-10 mg/kg p.o.). […]
as §4

Cc1onc(-c2ccccc2)c1-c1ccc(S(N)(=O)=O)cc1 [valdecoxib, reference compound]
Analgesic effect (% reversal) after p.o. treatment ([1]; 1 hour): 52.1 % reversal | Analgesic effect (% reversal) after p.o. treatment ([1]; 2 hours): 62.4 % reversal | effect on coronary flow (in words) [2]: no effect | edema inhibition effect % ([3]; 0.1 mg/kg p.o., 4 hours after treatment): 29.4% | edema inhibition effect % ([3]; 0.1 mg/kg p.o., 6 hours after treatment): 25.8% | edema inhibition effect % ([3]; 0.3 mg/kg p.o., 4 hours after treatment): 34.1% | edema inhibition effect % ([3]; 0.3 mg/kg p.o., 6 hours after treatment): 27.3% | edema inhibition effect % ([3]; 1.0 mg/kg p.o., 4 hours after treatment): 40.1% | edema inhibition effect % ([3]; 1.0 mg/kg p.o., 6 hours after treatment): 37.8% | edema inhibition effect % ([3]; 3.0 mg/kg p.o., 4 hours after treatment): 47.7% | edema inhibition effect % ([3]; 3.0 mg/kg p.o., 6 hours after treatment): 45.8% | ED30 of edema inhibition ([3]; 4 hours after treatment): 0.2 mg/kg | ED30 of edema inhibition ([3]; 6 hours after treatment): 0.3 mg/kg | Analgesic effect in % after p.o. treatment ([4]; 1 hour): 24.2% | Analgesic effect in % after p.o. treatment ([4]; 2 hours): 36.9% | Analgesic effect in % after p.o. treatment ([4]; 3 hours): 19.9% | Analgesic effect in % after p.o. treatment ([5]; 30 min.): 69.2% | Analgesic effect in % after p.o. treatment ([5]; 1 hour): 60.0% | Analgesic effect in % after p.o. treatment ([5]; 1.5 hour): 57.7% | Analgesic effect in % after p.o. treatment ([5]; 2 hours): 47.8% | Analgesic effect in % after p.o. treatment ([6]; 2 hours): 50.5% | Analgesic effect in % after p.o. treatment ([6]; 3 hours): 59.9% | Analgesic effect in % after p.o. treatment ([6]; 4 hours): 33.2%

Reference: patent US20070093539A1, “N-hydroxy-4-(3-pheyl-5-methyl-isoxazole-4-yl)-benzenesulfonate solvates” (priority 2003, published 2007)
